Laboratory results from paper PMC6717735, “Therapeutic Effect of pHLIP-mediated CEACAM6 Gene Silencing in Lung Adenocarcinoma” (Scientific Reports, 2019).

Columns and labels:
A549 tumours [1] = test: Ki-67 immunostaining of xenograft tumours (proliferation); format: in vivo, BALB/c nude mice; conditions: n = 5 tumours/group
Description: Mice were killed by carbon dioxide asphyxiation. Staining was performed in formalin-fixed, paraffin-embedded tumour sections (4-μm thickness). Fully automated immunostaining was achieved using a BenchMark XT autostainer (Ventana Medical Systems Inc., Tucson, AZ, USA). The following antibodies were used: monoclonal mouse anti-human CEACAM6 (9A6, 1:4,000; Santa Cruz Biotechnology Inc.), anti-CC3 (1:100, BioCare Medical, Pacheco, CA, USA), and anti-Ki-67 (1:100, VP-K452; Vector Laboratory, Burlington, Canada). The number of positive cells per tumour area was quantified.

A549 tumours [2] = test: A549 xenograft tumour growth; format: in vivo, BALB/c nude mice; conditions: compared with vehicle-treated mice; for reduction in tumour growth: n = 5
Description: We first assessed the knockdown efficacy of delivered […]6 in vivo. For in vivo analysis, BALB/c nude mice were subcutaneously injected with 1.2 × 10^7 A549 cells. Two weeks after tumour initiation, […]6 was injected into the mice via the tail vein with saline used as a negative control. To determine the optimal amount of […]6 for injection, two groups of mice (n = 5 mice/group) were injected with different doses (2 mg/kg and 4 mg/kg) twice per week for 3 weeks. Because cisplatin is the backbone of lung cancer treatment, cisplatin-treated mice served as the positive control. […] After 3 weeks of treatment, all mice were sacrificed. Next, we assessed the antitumour effects of concurrent chemotherapy and CEACAM6 targeting. […] According to the in vivo results, a dose of 2 mg/kg […]6 was selected for combination treatment. […] Tumour volume was measured every 2-3 days. […] None of the mice included in the therapeutic experiments experienced overt body weight loss or organ damage over the treatment period (Supplementary Fig. 5a,b). All animal work was performed in accordance with a protocol approved by the Institutional Animal Care and Use Committee of the Korea Research Institute of Bioscience and Biotechnology. A549 cells were subcutaneously injected into the right flanks of 5-week-old BALB/c athymic nude mice (n = 5 mice/group; 1.2 × 10^7 cells/mouse). Tumour growth was determined by measuring the length (L), width (W), and height (H) with callipers and using the formula V = (L × W × H) × 0.5.

N.N.[Cl][Pt][Cl] [cisplatin]
cell proliferation in tumours (Ki-67 staining) (A549 tumours [1]; combination study, after 3 weeks of systemic therapy): 18.4%
proliferation level (Ki-67 staining) (A549 tumours [1]; single-agent study, tumours harvested after 3 weeks): 11.2%
reduction in tumour growth (A549 tumours [2]; 2 mg/kg intraperitoneally 3 times/week for 3 weeks): 46.7%
reduction in tumour growth (A549 tumours [2]; 2 mg/kg intraperitoneally twice/week for 3 weeks): 35.0%
reduction in tumour volume (A549 tumours [2]; combination study: pHLIP-siCEACAM6 2 mg/kg via tail vein, cisplatin intraperitoneally, twice per week for 3 weeks, n = 5 mice/group): 29.9%
